# Measurements: US11708348B2, “Protease inhibitors for treatment of coronavirus infections” (The Scripps Research Institute, priority 2021, dated 2023)
# Where two headings read alike, the source gives them in different places.
# Test system: SARS-CoV-2 strain USA-WA1/2020
# Assay: microbe, parasite or virus in culture
# Type: cell-based
# Conditions: Severe acute respiratory syndrome coronavirus 2, HeLa-ACE2, 24 h, HeLa-ACE2 cells, SARS-CoV-2 infection, 24 h, read-out: EC50, uM (Hela)
structure (smiles),measurement,setting,value
"CC(C)C[C@H](NC(=O)C(=O)Nc1ccccc1F)C(=O)N[C@@H](C[C@@H]1CCCNC1=O)C(=O)COC(F)(F)F [Compound 219, N^1-(2-fluorophenyl)-N^2—((S)-4-methyl-1-oxo-1-(((S)-3-oxo-1-((S)-2-oxopiperidin-3-yl)-4-(trifluoromethoxy)butan-2-yl)amino)pentan-2-yl)oxalamide]",EC50,class symbols,< 0.05 µM
"CC1(NC(=O)C(=O)N[C@@H](CC2CC2)C(=O)N[C@@H](C[C@@H]2CCNC2=O)C(=O)COC(F)(F)F)CC(F)(F)C1 [Compound 220, N1-((S)-3-cyclopropyl-1-oxo-1-(((S)-3-oxo-1-((S)-2-oxopyrrolidin-3-yl)-4-(trifluoromethoxy)butan-2-yl)amino)propan-2-yl)-N2-(3,3-difluoro-1-methylcyclobutyl)-oxalamide]",EC50,class symbols,< 0.05 µM
"CC(C)C[C@H](NC(=O)C(=O)NC1CCC1)C(=O)N[C@@H](C[C@@H]1CCNC1=O)C(=O)COC(F)(F)F [Compound 221, N1-cyclobutyl-N2-((S)-4-methyl-1-oxo-1-(((S)-3-oxo-1-((S)-2-oxopyrrolidin-3-yl)-4-(trifluoromethoxy)butan-2-yl)amino)pentan-2-yl)oxalamide]",EC50,class symbols,< 0.05 µM
"CC1(NC(=O)C(=O)N[C@@H](CC2CC2)C(=O)N[C@@H](C[C@@H]2CCNC2=O)C(=O)COC(F)(F)F)CCOCC1 [Compound 222, N1-((S)-3-cyclopropyl-1-oxo-1-(((S)-3-oxo-1-((S)-2-oxopyrrolidin-3-yl)-4-(trifluoromethoxy)butan-2-yl)amino)propan-2-yl)-N2-(4-methyltetrahydro-2H-pyran-4-yl)oxalamide]",EC50,class symbols,0.05 to 0.2 µM
"O=C(N[C@@H](CC1CC1)C(=O)N[C@@H](C[C@@H]1CCNC1=O)C(=O)COC(F)(F)F)c1ncc(-c2ccccc2)[nH]1 [Compound 223, N-((S)-3-cyclopropyl-1-oxo-1-(((S)-3-oxo-1-((S)-2-oxopyrrolidin-3-yl)-4-(trifluoromethoxy)butan-2-yl)amino)propan-2-yl)-5-phenyl-1H-imidazole-2-carboxamide]",EC50,class symbols,< 0.05 µM
"CC(C)C[C@H](NC(=O)c1ncc(-c2ccccc2)[nH]1)C(=O)N[C@@H](C[C@@H]1CCNC1=O)C(=O)COC(F)(F)F [Compound 224, N-((S)-4-methyl-1-oxo-1-(((S)-3-oxo-1-((S)-2-oxopyrrolidin-3-yl)-4-(trifluoromethoxy)butan-2-yl)amino)pentan-2-yl)-5-phenyl-1H-imidazole-2-carboxamide]",EC50,class symbols,< 0.05 µM
"CC(C)(C)C[C@H](NC(=O)C(=O)NC12CC(F)(C1)C2)C(=O)N[C@@H](C[C@@H]1CCNC1=O)C(=O)COC(F)(F)F [Compound 226, N1-((S)-4,4-dimethyl-1-oxo-1-(((S)-3-oxo-1-((S)-2-oxopyrrolidin-3-yl)-4-(trifluoromethoxy)butan-2-yl)amino)pentan-2-yl)-N2-(3-fluorobicyclo[1.1.1]-pentan-1-yl)oxalamide]",EC50,class symbols,< 0.05 µM
"O=C(Nc1ccccc1F)C(=O)N[C@@H](CC1CCCC1(F)F)C(=O)N[C@@H](C[C@@H]1CCNC1=O)C(=O)COC(F)(F)F (stereo partly drawn) [Compound 227, N1-((2S)-3-(2,2-difluoro-cyclopentyl)-1-oxo-1-(((S)-3-oxo-1-((S)-2-oxopyrrolidin-3-yl)-4-(trifluoromethoxy)butan-2-yl)amino)propan-2-yl)-N2-(2-fluorophenyl)-oxalamide]",EC50,class symbols,< 0.05 µM
"COc1cccc2[nH]c(C(=O)N[C@@H](CC(C)C)C(=O)N[C@@H](C[C@@H]3CCCNC3=O)C(=O)COC(F)(F)F)cc12 [Compound 229, 4-methoxy-N-((S)-4-methyl-1-oxo-1-(((S)-3-oxo-1-((S)-2-oxopiperidin-3-yl)-4-(trifluoromethoxy)butan-2-yl)amino)pentan-2-yl)-1H-indole-2-carboxamide]",EC50,class symbols,< 0.05 µM
"CC(C)C[C@H](NC(=O)C(=O)NC1(CO)CC1)C(=O)N[C@@H](C[C@@H]1CCNC1=O)C(=O)COC(F)(F)F [Compound 231, Nl-(l-(hydroxymethyl)-cyclopropyl)-N2-((S)-4-methyl-1-oxo-1-(((S)-3-oxo-1-((S)-2-oxopyrrolidin-3-yl)-4-(trifluoromethoxy)butan-2-yl)amino)pentan-2-yl)oxalamide]",EC50,class symbols,0.5 to 1 µM
"O=C(NC1CCNCC1)C(=O)N[C@@H](CC1CC1)C(=O)N[C@@H](C[C@@H]1CCNC1=O)C(=O)COC(F)(F)F [Compound 232, N1-((S)-3-cyclopropyl-1-oxo-1-(((S)-3-oxo-1-((S)-2-oxopyrrolidin-3-yl)-4-(trifluoromethoxy)butan-2-yl)amino)propan-2-yl)-N2-(piperidin-4-yl)oxalamide]",EC50,bound printed in cell,> 1 µM
"COc1cccc2[nH]c(C(=O)N[C@@H](CCCc3ccccc3)C(=O)N[C@@H](C[C@@H]3CCNC3=O)C(=O)COC(F)(F)F)cc12 [Compound 233, 4-methoxy-N-((S)-1-oxo-1-(((S)-3-oxo-1-((S)-2-oxopyrrolidin-3-yl)-4-(trifluoromethoxy)butan-2-yl)amino)-5-phenylpentan-2-yl)-1H-indole-2-carboxamide]",EC50,class symbols,0.05 to 0.2 µM
"O=C(NC1CS(=O)(=O)C1)C(=O)N[C@@H](CC1CC1)C(=O)N[C@@H](C[C@@H]1CCNC1=O)C(=O)COC(F)(F)F [Compound 234, N1-((S)-3-cyclopropyl-1-oxo-1-(((S)-3-oxo-1-((S)-2-oxopyrrolidin-3-yl)-4-(trifluoromethoxy)butan-2-yl)amino)propan-2-yl)-N2-(l,1-dioxidothietan-3-yl)oxalamide]",EC50,bound printed in cell,> 1 µM
"COC[C@@H](Nc1ccccc1F)C(=O)N[C@@H](CC(C)C)C(=O)N[C@@H](C[C@@H]1CCNC1=O)C(=O)COC(F)(F)F [Compound 235, (S)-2-((R)-2-((2-fluorophenyl)amino)-3-methoxypropanamido)-4-methyl-N-((S)-3-oxo-1-((S)-2-oxopyrrolidin-3-yl)-4-(trifluoromethoxy)butan-2-yl)pentanamide]",EC50,class symbols,< 0.05 µM
"COC[C@H](Nc1ccccc1F)C(=O)N[C@@H](CC(C)C)C(=O)N[C@@H](C[C@@H]1CCNC1=O)C(=O)COC(F)(F)F [Compound 236, (S)-2-((S)-2-((2-fluorophenyl)amino)-3-methoxypropanamido)-4-methyl-N-((S)-3-oxo-1-((S)-2-oxopyrrolidin-3-yl)-4-(trifluoromethoxy)butan-2-yl)pentanamide]",EC50,class symbols,< 0.05 µM
"CC(C)C[C@H](NC(=O)C(=O)NC1(C(F)(F)F)CC1)C(=O)N[C@@H](C[C@@H]1CCNC1=O)C(=O)COC(F)(F)F [Compound 237, N1-((S)-4-methyl-1-oxo-1-(((S)-3-oxo-1-((S)-2-oxopyrrolidin-3-yl)-4-(trifluoromethoxy)butan-2-yl)amino)pentan-2-yl)-N2-(1-(trifluoromethyl)-cyclopropyl)oxalamide]",EC50,class symbols,< 0.05 µM
"COCC1(NC(=O)C(=O)N[C@@H](CC2CC2)C(=O)N[C@@H](C[C@@H]2CCNC2=O)C(=O)COC(F)(F)F)COC1 [Compound 238, N1-((S)-3-cyclopropyl-1-oxo-1-(((S)-3-oxo-1 ((S)-2-oxopyrrolidin-3-yl)-4-(trifluoromethoxy)butan-2-yl)amino)propan-2-yl)-N2-(3-(methoxymethyl)oxetan-3-yl)oxalamide]",EC50,class symbols,0.2 to 0.5 µM
"CC(C)C[C@H](NC(=O)C(N)=O)C(=O)N[C@@H](C[C@@H]1CCNC1=O)C(=O)COC(F)(F)F [Compound 239, N1-((S)-4-methyl-1-oxo-1-(((S)-3-oxo-1-((S)-2-oxopyrrolidin-3-yl)-4-(trifluoromethoxy)butan-2-yl)amino)pentan-2-yl)oxalamide]",EC50,bound printed in cell,> 1 µM
"CC(C)C[C@H](NC(=O)C(=O)NC1CC2(COC2)C1)C(=O)N[C@@H](C[C@@H]1CCNC1=O)C(=O)COC(F)(F)F [Compound 240, N1-((S)-4-methyl-1-oxo-1-(((S)-3-oxo-1-((S)-2-oxopyrrolidin-3-yl)-4-(trifluoromethoxy)butan-2-yl)amino)pentan-2-yl)-N2-(2-oxaspiro[3.3]heptan-6-yl)oxalamide]",EC50,class symbols,0.05 to 0.2 µM
"CC(C)C[C@H](NC(=O)C(=O)NC1CC2(C1)CC(F)(F)C2)C(=O)N[C@@H](C[C@@H]1CCNC1=O)C(=O)COC(F)(F)F [Compound 241, N1-(6,6-difluorospiro-[3.3]heptan-2-yl)-N2-((S)-4-methyl-1-oxo-1-(((S)-3-oxo-1-((S)-2-oxopyrrolidin-3-yl)-4-(trifluoromethoxy)butan-2-yl)amino)pentan-2-yl)oxalamide]",EC50,class symbols,< 0.05 µM
"COc1cccc(NC(=O)C(=O)N[C@@H](Cc2cccc(F)c2)C(=O)N[C@@H](C[C@@H]2CCNC2=O)C(=O)COC(F)(F)F)c1 [Compound 242, N1-((S)-3-(3-fluorophenyl)-1-oxo-1-(((S)-3-oxo-1-((S)-2-oxopyrrolidin-3-yl)-4-(trifluoromethoxy)butan-2-yl)amino)propan-2-yl)-N2-(3-methoxy-phenyl)oxalamide]",EC50,class symbols,< 0.05 µM
"O=C(Nc1ccccc1F)C(=O)N[C@@H](Cc1cccc(F)c1)C(=O)N[C@@H](C[C@@H]1CCNC1=O)C(=O)COC(F)(F)F [Compound 243, N1-(2-fluorophenyl)-N2-((S)-3-(3-fluorophenyl)-1-oxo-1-(((S)-3-oxo-1-((S)-2-oxopyrrolidin-3-yl)-4-(trifluoromethoxy)butan-2-yl)amino)propan-2-yl)oxalamide]",EC50,class symbols,< 0.05 µM
"CC(C)C[C@H](NC(=O)C(=O)NC1COC1)C(=O)N[C@@H](C[C@@H]1CCNC1=O)C(=O)COC(F)(F)F [Compound 244, N1-((S)-4-methyl-1-oxo-1-(((S)-3-oxo-1-((S)-2-oxopyrrolidin-3-yl)-4-(trifluoromethoxy)butan-2-yl)amino)pentan-2-yl)-N2-(oxetan-3-yl)oxalamide]",EC50,class symbols,0.05 to 0.2 µM
"CC(C)C[C@H](NC(=O)C(=O)NC1(C)CC1)C(=O)N[C@@H](C[C@@H]1CCCNC1=O)C(=O)COC(F)(F)F [Compound 245, N1-((S)-4-methyl-1-oxo-1-(((S)-3-oxo-1-((S)-2-oxopiperidin-3-yl)-4-(trifluoromethoxy)butan-2-yl)amino)pentan-2-yl)-N2-(1-methylcyclo-propyl)oxalamide]",EC50,class symbols,< 0.05 µM
